Data taken from article PMC9684503 (Communications Biology, 2022).
Several values for one entry are separate records, joined by “and”; a condition that tells them apart may be missing. Equal values may be shown once. Where a name gives a salt, the structure may show the parent alone.

Tests used:
VMAT2 [1] = molecular target: T1, VMAT2 (Rattus norvegicus, UniProt Q01827); assay: [3H]-DTBZ competition assay in Hek293 cells expressing VMAT2;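 for all read-outs here: HEK293 cells transfected with VMAT2, pretreated 30 min with compound, then given 5 nM [3H]-DTBZ for 20 min at 37 °C, bound label read by scintillation counting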; settings: for effect on [3H]-DTBZ binding compared with DMSO control (one-way ANOVA, p < 0.001): 50 μM compound; for [3H]-DTBZ binding relative to no compound (=1), replicate samples: Fig. 3b source data
T1 sequence (Q01827 whole entry): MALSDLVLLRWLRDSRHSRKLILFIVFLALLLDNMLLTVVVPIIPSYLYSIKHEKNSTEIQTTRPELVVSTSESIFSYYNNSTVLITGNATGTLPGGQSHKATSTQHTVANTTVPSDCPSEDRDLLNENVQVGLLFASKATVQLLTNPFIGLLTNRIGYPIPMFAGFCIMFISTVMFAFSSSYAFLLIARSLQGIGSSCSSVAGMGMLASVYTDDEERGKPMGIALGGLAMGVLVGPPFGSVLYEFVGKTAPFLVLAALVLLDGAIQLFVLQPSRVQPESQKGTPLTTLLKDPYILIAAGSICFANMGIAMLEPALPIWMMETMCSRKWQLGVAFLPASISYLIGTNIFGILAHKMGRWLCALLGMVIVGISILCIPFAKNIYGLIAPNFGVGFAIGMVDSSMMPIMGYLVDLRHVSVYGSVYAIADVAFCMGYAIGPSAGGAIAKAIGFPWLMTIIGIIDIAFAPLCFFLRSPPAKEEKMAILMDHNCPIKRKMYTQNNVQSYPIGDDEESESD
Procedure: (§1) We preincubated cells expressing VMAT2 with 50 μM compounds and measured [^3H]-DTBZ binding (5 nM) to the sample (Fig. 3a). […] Hek293 cells were grown and transfected with pcDNA3.1 VMAT2-His as described above. Two days after transfection, cells were harvested, washed and transferred to 96 well MultiScreen FB filter plates (Millipore). […] Cells were washed 3 times with ice cold PBS and 50 µl Ultima Gold LLL (PerkinElmer) was added to each well. […] After a 20 min incubation at 37 °C, cells were washed and [^3H] scintillation counting was performed as described above.

rat VMAT2 P314A = rat VMAT2 P314A (Rattus norvegicus, UniProt Q01827, P314A); assay: FFN206 uptake assay, VMAT2 mutant
rat VMAT2 P314A, sequence (Q01827 whole entry P314A): as the sequence (Q01827 whole entry) above, with P314A counted along it
Procedure: (§2) For activity assays, [^3H]-DTBZ and [^3H]-SMT binding and competition assays (see section below), several VMAT2 mutants were prepared. […] In addition, a selection of rVMAT2 mutants carrying mutations designed from binding modes identified by docking and MD-simulation was prepared in a pcDNA3.1 rVMAT2-Strep tag II plasmid.

rat VMAT2 Y434A = rat VMAT2 Y434A (Rattus norvegicus, UniProt Q01827, Y434A); assay: FFN206 uptake assay, VMAT2 mutant
rat VMAT2 Y434A, sequence (Q01827 whole entry Y434A): as the sequence (Q01827 whole entry) above, with Y434A counted along it
Procedure: as §2

rat VMAT2-His = molecular target: T2, rat VMAT2-His (Rattus norvegicus, UniProt Q01827); assay: Differential scanning fluorimetry (DSF) with CPM dye: change of melting temperature of purified VMAT2; format: binding; settings: for ΔTm: Table 1, DSF screening, mean ± SD of triplicates; for ΔTm at 12 µM / ΔTm at 37 µM / ΔTm at 10 µM / ΔTm at 30 µM / ΔTm at 90 µM / ΔTm at 270 µM / ΔTm at 11 µM / ΔTm at 33 µM: Table S2 dose response, read-out: ΔTm; for ΔTm at 12 µM: compound 0,12 µM; for ΔTm at 37 µM: compound 0,37 µM; for ΔTm at 10 µM: compound 10 µM; for ΔTm at 30 µM: compound 30 µM; for ΔTm at 90 µM: compound 90 µM; for ΔTm at 270 µM: compound 270 µM; for ΔTm at 11 µM: compound 1,11 µM; for ΔTm at 33 µM: compound 3,33 µM
T2 construct: The ORF of rat VMAT2 was subcloned into a pFastBac vector; His; made in house; host or cells: Sf9 insect cells (baculovirus)
T2 sequence (Q01827 whole entry): as the sequence (Q01827 whole entry) above
Summary of the method: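 Rat VMAT2-His from Sf9 baculovirus cells, purified by IMAC and SEC in DDM/CHS micelles, was screened by CPM-dye DSF over a 25–95 °C ramp at 2 °C/min. Tm was taken from the second derivative of the melting curve. Hits were validated in triplicate at 200 μM, with ΔTm > 5× SD as the cutoff.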

rat VMAT2 = rat VMAT2 (Rattus norvegicus, UniProt Q01827); assay: FFN206 uptake assay in transfected Hek293 cells; settings: for VMAT2-specific FFN206 uptake relative to DMSO (=1), replicate samples: Fig. 2a source data, 25 μM compound
rat VMAT2, sequence (Q01827 whole entry): as above

rat VMAT2 Q143A = rat VMAT2 Q143A (Rattus norvegicus, UniProt Q01827, Q143A); assay: FFN206 uptake assay, VMAT2 mutant
rat VMAT2 Q143A, sequence (Q01827 whole entry Q143A): as the sequence (Q01827 whole entry) above, with Q143A counted along it
Procedure: as §2

human VMAT2 = molecular target: T3, human VMAT2 (Homo sapiens, UniProt Q05940); assay: FFN206 uptake assay in transfected Hek293 cells; format: cell-based; settings: Table S1, substrate uptake assays in transfected Hek293 cells
T3 construct: expressed in transfected cells; host or cells: Hek293 cells, transient
T3 sequence (Q05940 whole entry): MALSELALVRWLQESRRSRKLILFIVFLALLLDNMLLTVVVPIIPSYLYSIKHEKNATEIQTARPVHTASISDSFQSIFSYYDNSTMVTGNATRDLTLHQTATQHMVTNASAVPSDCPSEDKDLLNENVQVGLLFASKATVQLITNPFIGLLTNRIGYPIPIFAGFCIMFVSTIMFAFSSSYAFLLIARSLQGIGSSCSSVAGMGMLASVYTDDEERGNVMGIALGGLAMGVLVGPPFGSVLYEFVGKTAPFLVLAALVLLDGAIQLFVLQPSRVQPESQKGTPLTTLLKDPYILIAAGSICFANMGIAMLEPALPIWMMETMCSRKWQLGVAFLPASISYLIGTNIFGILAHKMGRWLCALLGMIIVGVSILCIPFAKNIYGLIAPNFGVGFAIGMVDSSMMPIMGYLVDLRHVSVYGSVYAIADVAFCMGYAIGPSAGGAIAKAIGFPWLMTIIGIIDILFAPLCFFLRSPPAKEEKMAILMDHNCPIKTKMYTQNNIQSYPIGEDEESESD

VMAT2 [2] = molecular target: T1, VMAT2; settings: hek293 cells, 50 µM
Procedure: as §1

human VMAT1 = molecular target: T4, human VMAT1 (Homo sapiens, UniProt P54219); assay: FFN206 uptake assay in transfected Hek293 cells; format: cell-based; settings: Table S1, substrate uptake assays in transfected Hek293 cells
T4 construct: expressed in transfected cells; host or cells: Hek293 cells, transient
T4 sequence (P54219 1-525): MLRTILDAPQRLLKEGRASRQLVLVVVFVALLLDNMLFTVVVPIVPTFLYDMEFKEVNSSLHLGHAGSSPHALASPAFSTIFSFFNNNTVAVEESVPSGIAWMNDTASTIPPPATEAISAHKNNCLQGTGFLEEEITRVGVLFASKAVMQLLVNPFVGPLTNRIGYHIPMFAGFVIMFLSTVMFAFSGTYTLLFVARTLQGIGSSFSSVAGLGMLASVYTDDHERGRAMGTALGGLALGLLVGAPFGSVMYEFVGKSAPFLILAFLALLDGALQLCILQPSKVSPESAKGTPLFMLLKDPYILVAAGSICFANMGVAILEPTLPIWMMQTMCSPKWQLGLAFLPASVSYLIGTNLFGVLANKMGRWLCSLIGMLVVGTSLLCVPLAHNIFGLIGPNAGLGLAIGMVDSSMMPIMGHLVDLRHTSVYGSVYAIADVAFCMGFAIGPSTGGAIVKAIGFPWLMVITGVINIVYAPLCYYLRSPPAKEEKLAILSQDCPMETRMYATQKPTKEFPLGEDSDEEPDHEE

[3] = compound 100.0000 (μM per methods)
[4] = Fig. 2b/2c source data, compound 0.0152 μM
[5] = Fig. 2b/2c source data, compound 0.1372 μM
[6] = Fig. 2b/2c source data, compound 0.4115 μM
[7] = Fig. 2b/2c source data, compound 1.2346 μM
[8] = Fig. 2b/2c source data, compound 3.7037 μM
[9] = Fig. 2b/2c source data, compound 11.1111 μM
[10] = Fig. 2b/2c source data, compound 100.0000 μM

Row | SMILES | effect on [3H]-DTBZ binding compared with DMSO control (one-way ANOVA, p < 0.001) (VMAT2 [1]) | [3H]-DTBZ binding relative to no compound (=1), replicate samples (VMAT2 [1]; compound 0.0017) | [3H]-DTBZ binding relative to no compound (=1), replicate samples (VMAT2 [1]; compound 0.0051) | [3H]-DTBZ binding relative to no compound (=1), replicate samples (VMAT2 [1]; compound 0.0152) | [3H]-DTBZ binding relative to no compound (=1), replicate samples (VMAT2 [1]; compound 0.0457) | [3H]-DTBZ binding relative to no compound (=1), replicate samples (VMAT2 [1]; compound 0.1372) | [3H]-DTBZ binding relative to no compound (=1), replicate samples (VMAT2 [1]; compound 0.4115) | [3H]-DTBZ binding relative to no compound (=1), replicate samples (VMAT2 [1]; compound 1.2346) | [3H]-DTBZ binding relative to no compound (=1), replicate samples (VMAT2 [1]; compound 3.7037) | ΔTm (rat VMAT2-His) [oC] | ΔTm at 12 µM (rat VMAT2-His) [°C] | ΔTm at 37 µM (rat VMAT2-His) [°C] | ΔTm at 10 µM (rat VMAT2-His) [°C] | ΔTm at 30 µM (rat VMAT2-His) [°C] | ΔTm at 90 µM (rat VMAT2-His) [°C] | ΔTm at 270 µM (rat VMAT2-His) [°C] | ΔTm at 11 µM (rat VMAT2-His) [°C] | ΔTm at 33 µM (rat VMAT2-His) [°C] | IC50 (human VMAT2) [nM] | IC50 (human VMAT1) [nM] | also measured
1 | OCc1cc(C(O)CNCCCCCCOCCCCc2ccccc2)ccc1O (stereo not shown) [Salmeterol] | statistically significantly effect | 0.6032 and 1.156 and 0.8878 and 0.838 | 0.6168 and 0.8711 and 1.077 and 0.9012 | 0.7563 and 1.108 and 1.007 | 0.5988 and 0.6867 and 0.7774 and 0.6452 | 0.4074 and 0.4854 and 0.3736 and 0.3232 | 0.02476 and 0.03862 and 0.09845 and 0.04206 | 0.01432 and 0.02317 and 0.00733 and 0.04172 | 0.02156 and 0.02614 and 0.01787 and 0.1343 | 9.71 ± 0.22 | 5.78 | 6.25 | 7.48 | 7.9 | 8.7 | 10.5 | 6.55 | 7.04 | 35 ± 16 | 23 ± 2 | [3H]-DTBZ binding relative to no compound (=1), replicate samples (VMAT2 [1]; compound 11.1111): -0.04565 and 0.05011 and -0.00482 and -0.01021; [3H]-DTBZ binding relative to no compound (=1), replicate samples (VMAT2 [1]; compound 33.3333): -0.01836 and -0.0105 and -0.00518 and -0.00848; [3H]-DTBZ binding relative to no compound (=1), replicate samples (VMAT2 [1]; [3]): 0.02729 and -0.01624 and -0.00322 and -0.00727; IC50 (rat VMAT2 P314A): 234 ± 65 nM; IC50 (rat VMAT2 Y434A): 126 ± 87 nM; IC50 (rat VMAT2): 53 ± 28 nM; VMAT2-specific FFN206 uptake relative to DMSO (=1), replicate samples (rat VMAT2): 0.01652 and -0.1153 and -0.05311 and -0.0161; FFN206 uptake relative to no compound (=1), replicate samples (rat VMAT2; [4]): 0.8683 and 0.9316 and 0.8545 and 0.8755 and 0.7872 and 0.8834 and 0.9116 and 0.9363; FFN206 uptake relative to no compound (=1), replicate samples (rat VMAT2; [5]): 0.4384 and 0.5181 and 0.4428 and 0.5409 and 0.2594 and 0.3377 and 0.3056 and 0.4141; FFN206 uptake relative to no compound (=1), replicate samples (rat VMAT2; [6]): 0.2986 and 0.3445 and 0.2962 and 0.3132 and 0.1258 and 0.1847 and 0.149 and 0.1946; FFN206 uptake relative to no compound (=1), replicate samples (rat VMAT2; [7]): 0.2192 and 0.2619 and 0.2463 and 0.2625 and -0.00094 and 0.06663 and 0.05805 and 0.07997; FFN206 uptake relative to no compound (=1), replicate samples (rat VMAT2; [8]): 0.2883 and 0.2538 and 0.257 and 0.1826 and 0.05594 and 0.1039 and 0.07279 and 0.105; FFN206 uptake relative to no compound (=1), replicate samples (rat VMAT2; [9]): 0.2315 and 0.2175 and 0.2018 and 0.1642 and 0.02429 and 0.09314 and 0.05353 and 0.1229; FFN206 uptake relative to no compound (=1), replicate samples (rat VMAT2; [10]): 0.2045 and 0.2463 and 0.2058 and 0.2286 and -0.0325 and 0.06428 and 0.00994 and 0.07; FFN206 uptake relative to no compound (=1), replicate samples (rat VMAT2; Fig. 2c source data, compound 0.0017 μM): 0.9528 and 0.9756 and 1.008 and 0.9844; IC50 (rat VMAT2 Q143A): 148 ± 33 nM; activity (VMAT2 [2]): 0.37 ± 2.83%
2 | COc1cc2c(cc1OC)C1CC(=O)C(CC(C)C)CN1CC2 (stereo not shown) [Tetrabenazine] | – | – | – | – | – | – | – | – | – | 8.17 ± 0.14 | 4.89 | 5.05 | 6.86 | 4.27 | 4.64 | 5.17 | 5.52 | 5.92 | 18 | > 100000 | –
3 | O=C1Cc2cc(CCN3CCN(c4nsc5ccccc45)CC3)c(Cl)cc2N1 [Ziprasidone, Ziprasidone Hydrochloride] | statistically significantly effect | 0.8751 and 1.064 and 1.013 and 0.8455 | 0.8936 and 1.069 and 1.018 and 0.8322 | 0.7303 and 1.42 and 1.076 and 0.8096 | 0.8393 and 0.4876 and 0.8108 and 0.8579 | 1.015 and 0.924 and 0.9381 and 0.7974 | 0.6748 and 0.8924 and 0.7988 and 0.4363 | 0.4427 and 0.7246 and 0.4654 and 0.6729 | 0.6274 and 0.382 and 0.3472 and 0.5985 | 2.69 ± 0.12 | 0.41 | 0.68 | 0.6 | 0.71 | 1.13 | 1.82 | 0.69 | 0.58 | 23 | 35 | [3H]-DTBZ binding relative to no compound (=1), replicate samples (VMAT2 [1]; compound 11.1111): 0.6424 and 0.4197 and 0.5023 and 0.5651; [3H]-DTBZ binding relative to no compound (=1), replicate samples (VMAT2 [1]; compound 33.3333): 0.4189 and 0.1764 and 0.1269 and 0.541; [3H]-DTBZ binding relative to no compound (=1), replicate samples (VMAT2 [1]; [3]): 0.3228 and 0.1927 and 0.2304 and 0.2985; IC50 (rat VMAT2 P314A): 132 ± 8 nM; fold increased IC50 vs wild-type (rat VMAT2 P314A; P314A): approx. 3 fold; IC50 (rat VMAT2): 39 ± 17 nM; VMAT2-specific FFN206 uptake relative to DMSO (=1), replicate samples (rat VMAT2): -0.0048 and -0.08665 and -0.06177 and 0.05752; FFN206 uptake relative to no compound (=1), replicate samples (rat VMAT2; [4]): 0.7804 and 0.7848 and 0.755 and 0.7991; FFN206 uptake relative to no compound (=1), replicate samples (rat VMAT2; [5]): 0.4886 and 0.4837 and 0.4034 and 0.5734; FFN206 uptake relative to no compound (=1), replicate samples (rat VMAT2; [6]): 0.4342 and 0.3743 and 0.3683 and 0.4657; FFN206 uptake relative to no compound (=1), replicate samples (rat VMAT2; [7]): 0.3953 and 0.3737 and 0.3153 and 0.4191; FFN206 uptake relative to no compound (=1), replicate samples (rat VMAT2; [8]): 0.3802 and 0.3604 and 0.2907 and 0.3691; FFN206 uptake relative to no compound (=1), replicate samples (rat VMAT2; [9]): 0.4118 and 0.377 and 0.294 and 0.3618; FFN206 uptake relative to no compound (=1), replicate samples (rat VMAT2; [10]): 0.3782 and 0.3789 and 0.3057 and 0.3727; IC50 (rat VMAT2 Q143A): 354 ± 83 nM; fold increased IC50 vs wild-type (rat VMAT2 Q143A; Q143A): ~10 fold; activity (VMAT2 [2]): 36.5 ± 7.71%
